Assay results taken from ChEMBL document CHEMBL4251691, “Thiazole Derivatives as Inhibitors for the Treatment of Cancer Cells Resistant” (ACS Med Chem Lett, 2018).

biological target: L-lactate dehydrogenase (Homo sapiens, UniProt V9HWB9); experiment: Inhibition of LDH (unknown origin) assessed as reduction in lactate production by cell-based assay

Row | SMILES | IC50 [nM]
1 | CC(=O)c1cc(-c2nn(-c3nc(C(=O)O)cs3)c(CC3CC3)c2Cc2ccc(S(N)(=O)=O)c(F)c2)ccc1F | < 1000
2 | NS(=O)(=O)c1ccc(Cc2c(-c3ccc(F)c(C4=CCC(F)(F)CC4)c3)nn(-c3nc(C(=O)O)cs3)c2CC2CC2)cc1F | < 1000
3 | CC1CC=C(c2cc(-c3nn(-c4nc(C(=O)O)cs4)c(CC4CC4)c3Cc3ccc(S(N)(=O)=O)c(F)c3)ccc2F)CC1 (stereo unspecified) | < 1000
4 | Cc1ccc(/C=C/c2cccc(-c3nn(-c4nc(C(=O)O)cs4)c(CC4CC4)c3Cc3ccc(S(N)(=O)=O)c(F)c3)c2)s1 | < 1000

The next lines start with the values.

Row | IC50 [nM] | SMILES
5 | < 1000 | Cc1ccc(-c2cc(-c3nn(-c4nc(C(=O)O)cs4)c(CC4CC4)c3Cc3ccc(S(N)(=O)=O)c(F)c3)ccc2F)cc1F
6 | < 1000 | CC1CCCC=C1c1cc(-c2nn(-c3nc(C(=O)O)cs3)c(CC3CC3)c2Cc2ccc(S(N)(=O)=O)c(F)c2)ccc1F (stereo unspecified)
